± gives the expanded uncertainty stated by the source.
Assay: xn = mol fraction of the nth substance listed
Conditions: 101 kPa, Liquid; for speed of sound: Sing-around technique in a fixed-path interferometer

ClC(Cl)Cl [trichloromethane] + CCCCCCCO
Conditions | kinematic viscosity, 303.15 K [m2/s] | kinematic viscosity, 313.15 K [m2/s] | mass density, 303.15 K [kg/m3] | mass density, 313.15 K [kg/m3] | speed of sound, 303.15 K [m/s] | speed of sound, 313.15 K [m/s]
x1 = 0.0487 | 5.58e-06 ± 6.5e-08 | 4.17e-06 ± 5e-08 | 833.37 ± 0.59 | 825.81 ± 0.62 | 1296 ± 3 | 1262 ± 3
x1 = 0.1002 | 4.98e-06 ± 6e-08 | 3.74e-06 ± 4.5e-08 | 853.69 ± 0.61 | 845.75 ± 0.64 | 1277 ± 3 | 1244 ± 3
x1 = 0.1498 | 4.41e-06 ± 5.3e-08 | 3.34e-06 ± 4.1e-08 | 874.2 ± 0.63 | 865.8 ± 0.65 | 1260 ± 3 | 1226 ± 3
x1 = 0.2006 | 3.86e-06 ± 4.7e-08 | 2.95e-06 ± 3.6e-08 | 896.15 ± 0.64 | 887.32 ± 0.67 | 1241 ± 3 | 1207 ± 3
x1 = 0.2516 | 3.38e-06 ± 4.1e-08 | 2.61e-06 ± 3.2e-08 | 919.27 ± 0.66 | 909.96 ± 0.69 | 1222 ± 3 | 1187 ± 3
x1 = 0.3003 | 2.93e-06 ± 3.6e-08 | 2.29e-06 ± 2.9e-08 | 942.39 ± 0.68 | 932.57 ± 0.71 | 1204 ± 3 | 1168 ± 3
x1 = 0.3538 | 2.52e-06 ± 3.1e-08 | 1.99e-06 ± 2.5e-08 | 969.09 ± 0.7 | 958.73 ± 0.73 | 1183 ± 3 | 1147 ± 3
x1 = 0.4003 | 2.18e-06 ± 2.7e-08 | 1.75e-06 ± 2.2e-08 | 993.52 ± 0.72 | 982.67 ± 0.75 | 1165 ± 3 | 1129 ± 3
x1 = 0.4466 | 1.89e-06 ± 2.4e-08 | 1.54e-06 ± 2e-08 | 1019.1 ± 0.74 | 1007.69 ± 0.77 | 1147 ± 3 | 1111 ± 3
x1 = 0.5001 | 1.61e-06 ± 2e-08 | 1.32e-06 ± 1.7e-08 | 1050.23 ± 0.77 | 1038.22 ± 0.79 | 1126 ± 3 | 1091 ± 3
x1 = 0.5517 | 1.35e-06 ± 1.7e-08 | 1.13e-06 ± 1.5e-08 | 1082.09 ± 0.8 | 1069.43 ± 0.82 | 1107 ± 3 | 1072 ± 3
x1 = 0.6002 | 1.17e-06 ± 1.5e-08 | 1e-06 ± 1.4e-08 | 1113.83 ± 0.82 | 1100.51 ± 0.84 | 1089 ± 3 | 1054 ± 2
x1 = 0.6539 | 9.76e-07 ± 1.3e-08 | 8.45e-07 ± 1.2e-08 | 1151.17 ± 0.85 | 1137.19 ± 0.87 | 1070 ± 3 | 1035 ± 2
x1 = 0.6994 | 8.51e-07 ± 1.2e-08 | 7.41e-07 ± 1.1e-08 | 1184.84 ± 0.88 | 1170.19 ± 0.9 | 1054 ± 2 | 1019 ± 2
x1 = 0.7449 | 7.4e-07 ± 1.1e-08 | 6.59e-07 ± 1e-08 | 1220.55 ± 0.91 | 1205.18 ± 0.93 | 1039 ± 2 | 1004 ± 2
x1 = 0.8 | 6.33e-07 ± 1e-08 | 5.69e-07 ± 1e-08 | 1266.83 ± 0.95 | 1250.5 ± 0.97 | 1022 ± 2 | 987 ± 2
x1 = 0.8465 | 5.58e-07 ± 1e-08 | 5.09e-07 ± 9e-09 | 1308.67 ± 0.98 | 1291.64 ± 1 | 1008 ± 2 | 972 ± 2
x1 = 0.9003 | 4.81e-07 ± 9e-09 | 4.45e-07 ± 9e-09 | 1360.81 ± 1 | 1342.82 ± 1.1 | 993 ± 2 | 957 ± 2
x1 = 0.9521 | 4.2e-07 ± 8e-09 | 3.88e-07 ± 8e-09 | 1414.86 ± 1.1 | 1396.16 ± 1.1 | 979 ± 2 | 943 ± 2
x1 = 1 | 3.63e-07 ± 8e-09 | 3.39e-07 ± 8e-09 | 1469.21 ± 1.1 | 1449.74 ± 1.1 | 969 ± 2 | 934 ± 2
